Data as given in patent publication US12448369B2 (Edgewise Therapeutics, Inc., priority 2023, dated 2025).

Experiments:
[1] = tested on: Rabbit Psoas myofibrils (skeletal myosin ATPase); experiment: Myofibril ATPase assay, rabbit psoas (skeletal) myofibrils; assay type: biochemical; conditions: Y75 value (no ‡ mark); rabbit psoas myofibrils
Outline: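 Rabbit psoas skeletal myofibrils in PIPES/CaCl2/EGTA pCa buffer, pH 7.0. ATPase rate followed by PK-LDH-coupled NADH loss at 340 nm, read every 1.5–2 min for 75 min. Slopes normalized to vehicle (100%) and fitted to a 4-parameter logistic; values are Y75 (25% inhibition) or Y125 (25% activation) concentrations.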

[2] = tested on: Porcine atria myofibrils (atrial myosin ATPase); experiment: Myofibril ATPase assay, porcine atria myofibrils; assay type: biochemical; conditions: Y75 value (no ‡ mark); porcine atria myofibrils
Outline: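 Coupled PK-LDH reaction links ADP from myosin ATPase to NADH loss, read at 340 nm every 1.5-2 min for 75 min. Slopes (mAU/min) normalized to vehicle-only wells (100%) and fit to a 4-parameter logistic; Y75 is the concentration cutting activity by 25%, Y125 is reported for activators.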

[3] = target: T1, Porcine ventricle myofibrils (ventricular myosin ATPase) (Sus scrofa, UniProt P79293); experiment: Myofibril ATPase assay, porcine ventricle myofibrils; assay type: biochemical, porcine (Yucatan minipigs); conditions: Y75 value (no ‡ mark); porcine ventricle myofibrils
T1 construct: Myofibrils from porcine cardiac muscle was isolated from the left ventricle of Yucatan minipigs; tissue Exemplar Genetics; host or cells: left ventricle of Yucatan minipigs, myofibrils prepared in house
T1 sequence (P79293 whole entry): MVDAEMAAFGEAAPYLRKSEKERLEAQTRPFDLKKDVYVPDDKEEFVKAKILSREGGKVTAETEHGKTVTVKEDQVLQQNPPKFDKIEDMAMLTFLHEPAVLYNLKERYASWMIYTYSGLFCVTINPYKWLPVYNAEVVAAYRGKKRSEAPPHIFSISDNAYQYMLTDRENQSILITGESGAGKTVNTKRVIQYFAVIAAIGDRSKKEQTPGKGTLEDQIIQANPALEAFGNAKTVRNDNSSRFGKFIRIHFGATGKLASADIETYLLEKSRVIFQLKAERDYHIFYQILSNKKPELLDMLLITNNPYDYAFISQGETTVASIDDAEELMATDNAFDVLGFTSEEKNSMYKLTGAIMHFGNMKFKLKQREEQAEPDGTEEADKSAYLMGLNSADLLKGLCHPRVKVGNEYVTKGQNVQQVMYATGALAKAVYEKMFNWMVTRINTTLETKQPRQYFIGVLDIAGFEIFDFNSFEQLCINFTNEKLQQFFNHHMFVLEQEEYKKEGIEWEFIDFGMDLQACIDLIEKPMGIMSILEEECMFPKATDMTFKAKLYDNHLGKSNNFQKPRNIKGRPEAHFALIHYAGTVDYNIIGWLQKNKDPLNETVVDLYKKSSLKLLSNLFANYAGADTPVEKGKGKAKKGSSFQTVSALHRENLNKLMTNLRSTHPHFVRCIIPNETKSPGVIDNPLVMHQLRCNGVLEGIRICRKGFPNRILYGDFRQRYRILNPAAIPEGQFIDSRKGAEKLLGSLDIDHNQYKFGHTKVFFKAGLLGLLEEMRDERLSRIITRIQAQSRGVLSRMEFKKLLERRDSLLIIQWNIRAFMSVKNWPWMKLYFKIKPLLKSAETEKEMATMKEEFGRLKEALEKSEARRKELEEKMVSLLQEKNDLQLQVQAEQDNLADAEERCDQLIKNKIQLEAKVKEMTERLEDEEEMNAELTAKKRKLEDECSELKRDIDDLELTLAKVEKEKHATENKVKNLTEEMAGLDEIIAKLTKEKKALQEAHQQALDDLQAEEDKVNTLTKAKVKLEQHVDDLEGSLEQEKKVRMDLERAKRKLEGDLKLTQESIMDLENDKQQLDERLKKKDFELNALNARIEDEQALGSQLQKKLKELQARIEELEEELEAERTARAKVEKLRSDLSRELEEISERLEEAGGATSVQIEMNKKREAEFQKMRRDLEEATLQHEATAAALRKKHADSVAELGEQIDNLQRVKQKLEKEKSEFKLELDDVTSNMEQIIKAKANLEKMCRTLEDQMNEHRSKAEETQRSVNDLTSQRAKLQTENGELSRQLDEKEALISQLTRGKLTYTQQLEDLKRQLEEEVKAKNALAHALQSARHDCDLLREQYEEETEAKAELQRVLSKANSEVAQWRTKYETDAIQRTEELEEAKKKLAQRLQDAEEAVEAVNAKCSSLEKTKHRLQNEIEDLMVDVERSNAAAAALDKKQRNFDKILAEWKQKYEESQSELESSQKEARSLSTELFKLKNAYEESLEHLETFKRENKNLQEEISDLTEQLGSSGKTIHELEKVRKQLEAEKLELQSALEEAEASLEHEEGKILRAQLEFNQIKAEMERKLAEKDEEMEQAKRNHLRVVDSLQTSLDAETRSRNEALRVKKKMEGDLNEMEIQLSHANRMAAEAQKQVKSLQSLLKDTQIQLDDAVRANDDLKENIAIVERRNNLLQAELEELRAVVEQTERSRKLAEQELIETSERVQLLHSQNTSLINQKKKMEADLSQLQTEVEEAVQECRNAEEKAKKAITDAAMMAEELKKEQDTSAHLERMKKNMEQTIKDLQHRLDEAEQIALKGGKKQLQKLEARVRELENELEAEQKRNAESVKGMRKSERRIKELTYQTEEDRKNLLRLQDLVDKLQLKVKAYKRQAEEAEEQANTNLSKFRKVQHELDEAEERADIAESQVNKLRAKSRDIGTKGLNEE
Outline: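 Left-ventricle myofibrils from Yucatan minipigs were tested with a PK/LDH-coupled system, following NADH loss at 340 nm every 1.5-2 min for 75 min. Slopes were normalized to vehicle wells and fit to a 4-parameter logistic model; values are Y75 (25% ATPase reduction) or Y125 concentrations.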

Row | SMILES | Skeletal EC25 [1] | Atrial EC25 [2] | Ventricular EC25 [3]
1 | C[C@@H](NC(=O)Cc1cc2cc(F)c(F)cc2[nH]c1=O)c1cnc(C#N)cn1 [compound 1098] | 17.72 µM | 7.06 µM | 17.06 µM
2 | C[C@H](NC(=O)Cc1cc2cc(F)c(F)cc2[nH]c1=O)c1cnc(C#N)cn1 [compound 1099] | 4.41 µM | 7.61 µM | 49.75 µM
3 | Cc1c(CC(=O)N[C@H](C)c2cnc(C#N)nc2)c(=O)[nH]c2ccc(F)cc12 [compound 1100] | 0.53 µM | 0.77 µM | 2.27 µM
4 | Cc1c(CC(=O)N[C@@H](C)c2cnc(C#N)nc2)c(=O)[nH]c2ccc(F)cc12 [compound 1101] | 0.06 µM | 0.17 µM | 0.31 µM
5 | Cc1c(CC(=O)N[C@@H](C)c2cnc(C#N)cn2)c(=O)[nH]c2cc(F)c(F)cc12 [compound 1103] | 0.06 µM | 0.40 µM | 1.07 µM
6 | Cc1c(CC(=O)N[C@H](C)c2ncc(C#N)cc2F)c(=O)[nH]c2cc(F)c(F)cc12 [compound 1104] | 0.03 µM | 0.14 µM | 0.21 µM
7 | Cc1c(CC(=O)N[C@@H](C)c2ncc(C#N)cc2F)c(=O)[nH]c2cc(F)c(F)cc12 [compound 1105] | 1.36 µM | 100.00 µM | 4.47 µM
8 | Cc1c(CC(=O)N[C@@H](C)c2ncc(C#N)cc2F)c(=O)[nH]c2ccc(F)cc12 [compound 1107] | 0.03 µM | 0.12 µM | 0.15 µM
9 | Cc1c(CC(=O)N[C@H](C)c2cnc(C#N)cn2)c(=O)[nH]c2ccc(F)cc12 [compound 1108] | 0.37 µM | 6.47 µM | 1.44 µM
10 | Cc1c(CC(=O)N[C@@H](C)c2cnc(C#N)cn2)c(=O)[nH]c2ccc(F)cc12 [compound 1109] | 0.05 µM | 0.16 µM | 0.36 µM
11 | Cc1cccc2[nH]c(=O)c(CC(=O)N[C@@H](C)c3ccc(C#N)cn3)c(C#N)c12 [compound 1111] | 0.26 µM | 0.49 µM | 2.28 µM
12 | Cc1c(CC(=O)N[C@H](C)c2ccc(C#N)cn2)c(=O)[nH]c2cc(F)c(F)cc12 [compound 1112] | 3.86 µM | 5.01 µM | 2.09 µM
13 | Cc1c(CC(=O)N[C@@H](C)c2ccc(C#N)cn2)c(=O)[nH]c2cc(F)c(F)cc12 [compound 1113] | 0.47 µM | 0.97 µM | 2.55 µM
14 | C[C@@H](NC(=O)Cc1cc2cc(F)c(F)cc2[nH]c1=O)c1ccc(C#N)cn1 [compound 1114] | 22.82 µM | 8.40 µM | 8.08 µM
15 | C[C@H](NC(=O)Cc1cc2cc(F)c(F)cc2[nH]c1=O)c1ccc(C#N)cn1 [compound 1115] | 11.40 µM | 27.67 µM | 69.62 µM
16 | Cc1cc([C@@H](C)NC(=O)Cc2c(O)c3c(C)c(F)ccc3[nH]c2=O)ncc1F [compound 1116] | 100.00 µM | 100.00 µM | 100.00 µM
17 | Cc1cc([C@H](C)NC(=O)Cc2c(O)c3c(C)c(F)ccc3[nH]c2=O)ncc1F [compound 1117] | 100.00 µM | 100.00 µM | 46.61 µM
18 | Cc1c(CC(=O)N[C@H](C)c2ccc(C#N)nn2)c(=O)[nH]c2ccc(F)cc12 [compound 1119] | 0.22 µM | 0.48 µM | 1.18 µM
19 | Cc1c(CC(=O)N[C@@H](C)c2ccc(C#N)nn2)c(=O)[nH]c2ccc(F)cc12 [compound 1120] | 2.90 µM | 2.58 µM | 10.61 µM

Continued, values first:

Row | Skeletal EC25 [1] | Atrial EC25 [2] | Ventricular EC25 [3] | SMILES
20 | 100.00 µM | 100.00 µM | 100.00 µM | Cc1cc(C#N)cnc1[C@H](C)NC(=O)Cc1c(O)c2c(C)c(F)ccc2[nH]c1=O [compound 1121]
21 | 6.95 µM | 9.16 µM | 38.45 µM | Cc1cc(C#N)cnc1[C@@H](C)NC(=O)Cc1c(O)c2c(C)c(F)ccc2[nH]c1=O [compound 1122]
22 | 100.00 µM | 18.28 µM | 100.00 µM | C[C@@H](NC(=O)Cc1cc2cc(F)ccc2[nH]c1=O)c1ccc(C#N)cn1 [compound 1125]
23 | 100.00 µM | 100.00 µM | 100.00 µM | C[C@H](NC(=O)Cc1cc2cc(F)ccc2[nH]c1=O)c1ccc(C#N)cn1 [compound 1126]
24 | 0.24 µM | 0.72 µM | 1.57 µM | Cc1c(CC(=O)N[C@H](C)c2ccc(C#N)cn2)c(=O)[nH]c2ccc(F)cc12 [compound 1127]
25 | 0.09 µM | 0.52 µM | 0.70 µM | Cc1c(CC(=O)N[C@@H](C)c2ccc(C#N)cn2)c(=O)[nH]c2ccc(F)cc12 [compound 1128]
26 | 0.53 µM | 0.35 µM | 0.89 µM | Cc1nc(C#N)ncc1[C@@H](C)NC(=O)Cc1c(C)c2c(F)c(F)ccc2[nH]c1=O [compound 1131]
27 | 0.02 µM | 0.10 µM | 0.05 µM | Cc1nc(C#N)ncc1[C@H](C)NC(=O)Cc1c(C)c2c(F)c(F)ccc2[nH]c1=O [compound 1132]
28 | 0.04 µM | 0.09 µM | 0.14 µM | Cc1c(CC(=O)N[C@H](C)c2ccc(C#N)nn2)c(=O)[nH]c2ccc(F)c(F)c12 [compound 1133]
29 | 2.90 µM | 0.59 µM | 5.94 µM | Cc1cc(C#N)nnc1[C@@H](C)NC(=O)Cc1c(C)c2c(F)c(F)ccc2[nH]c1=O [compound 1135]
30 | 0.05 µM | 0.14 µM | 0.12 µM | Cc1cc(C#N)nnc1[C@H](C)NC(=O)Cc1c(C)c2c(F)c(F)ccc2[nH]c1=O [compound 1136]
31 | 5.34 µM | 5.32 µM | 2.51 µM | C[C@@H](NC(=O)Cc1cc2c(F)cc(F)cc2[nH]c1=O)c1ncc(C#N)cc1F [compound 1137]
32 | 0.04 µM | 1.64 µM | 1.22 µM | C[C@H](NC(=O)Cc1cc2c(F)cc(F)cc2[nH]c1=O)c1ncc(C#N)cc1F [compound 1138]
33 | 0.03 µM | 0.14 µM | 0.14 µM | Cc1nc(C#N)cnc1[C@@H](C)NC(=O)Cc1c(C)c2c(F)c(F)ccc2[nH]c1=O [compound 1139]
34 | 0.00 µM | 0.08 µM | 0.06 µM | Cc1nc(C#N)cnc1[C@H](C)NC(=O)Cc1c(C)c2c(F)c(F)ccc2[nH]c1=O [compound 1140]
35 | 1.78 µM | 1.44 µM | 4.45 µM | C[C@@H](NC(=O)Cc1c(C2CC2)c2c(F)cccc2[nH]c1=O)c1ncc(C#N)cc1F [compound 1143]
36 | 0.09 µM | 0.29 µM | 0.84 µM | C[C@H](NC(=O)Cc1c(C2CC2)c2c(F)cccc2[nH]c1=O)c1ncc(C#N)cc1F [compound 1144]
37 | 1.01 µM | 2.84 µM | 0.94 µM | Cc1c(F)ccc2[nH]c(=O)c(CC(=O)N[C@H](C)c3ncc(F)cc3F)c(C#N)c12 [compound 1147]
38 | 0.05 µM | 0.06 µM | 0.09 µM | Cc1c(F)ccc2[nH]c(=O)c(CC(=O)N[C@@H](C)c3ncc(F)cc3F)c(C#N)c12 [compound 1148]
39 | 0.47 µM | 1.90 µM | 0.15 µM | Cc1c(F)ccc2[nH]c(=O)c(CC(=O)N[C@H](C)c3ncc(C#N)cc3F)c(C#N)c12 [compound 1149]
40 | 0.04 µM | 0.05 µM | 0.05 µM | Cc1c(F)ccc2[nH]c(=O)c(CC(=O)N[C@@H](C)c3ncc(C#N)cc3F)c(C#N)c12 [compound 1150]
41 | 10.08 µM | 21.52 µM | 21.67 µM | C[C@@H](NC(=O)Cc1c(C2CC2)c2cc(C#N)ccc2[nH]c1=O)c1ncc(C#N)cc1F [compound 1151]
42 | 3.82 µM | 59.91 µM | 7.78 µM | C[C@H](NC(=O)Cc1c(C2CC2)c2cc(C#N)ccc2[nH]c1=O)c1ncc(C#N)cc1F [compound 1152]
43 | 0.66 µM | 0.89 µM | 2.86 µM | COc1ccc2[nH]c(=O)c(CC(=O)N[C@@H](C)c3ccc(F)cc3F)c(C)c2c1C#N [compound 1153]
